Target: T1, 3-phosphoinositide-dependent protein kinase 1 [50-359] (Homo sapiens, UniProt O15530)
T1 construct: 50-359
T1 sequence (O15530 whole entry): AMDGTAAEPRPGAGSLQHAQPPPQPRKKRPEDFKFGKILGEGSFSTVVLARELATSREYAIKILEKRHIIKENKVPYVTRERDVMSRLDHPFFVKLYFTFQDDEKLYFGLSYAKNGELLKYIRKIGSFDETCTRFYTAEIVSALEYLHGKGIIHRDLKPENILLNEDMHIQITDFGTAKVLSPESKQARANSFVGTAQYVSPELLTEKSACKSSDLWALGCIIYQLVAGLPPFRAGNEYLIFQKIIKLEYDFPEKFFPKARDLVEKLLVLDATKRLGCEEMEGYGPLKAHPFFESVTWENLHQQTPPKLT
Assay: Isothermal titration calorimetry
Settings: pH 7.4
Description: For the titrations of PDK1 with adenosine, the protein and the compound were prepared in 50 mMTris-HCl (pH 7.4), 200 mM NaCl, 1 mM DTT and 1% v/v DMSO. For the titration of PDK1 with PS653 theprotein and the compound were prepared in 50 mM Tris-HCl (pH 7.4), 200 mM NaCl, 1 mM DTT and 5% v/vDMSO. […] The titrationof PDK1 with adenosine was performed at 25 C, and the titration of PDK1 with PS653 was made at 37 C. Rawcalorimetric data were corrected for heats of dilution. Binding stoichiometries, enthalpy values and Kd valueswere determined by fitting corrected data to

SMILES: O=C1c2ccccc2-c2n[nH]c3cccc1c23 [SP-600125]
- Kd: 1250 nM
